The values below come from PMC11004567 (Heliyon, 2024).

The subject of data set [1] is non-cancer human renal proximal tubule epithelial TH-1 cells. The note with it: read-out: IC50 TH-1; cytotoxicity, non-cancer renal TH-1 cells; cited from earlier work.
Data set [2] has as its system breast cancer MCF-7 cells. The settings on record: through creation of ROS, disruption of mitochondrial membrane potential; cited from earlier work.
Data set [3] relates to Staphylococcus aureus ATCC 29213. Briefly: In vitro antibacterial evaluation, broth dilution micro-method MIC. The data set is classed as cell-based. (Dilution methods test growth across graded concentrations, often in twofold steps.)
Data set [4] deals with mature S. aureus ATCC 29213 biofilm. As to the kind of experiment: Biofilm disruption / eradication of mature biofilm. The data set is classed as cell-based, Staphylococcus aureus.
Data set [5] relates to MRSA2, methicillin-resistant S. aureus clinical isolate SA 630. Briefly: In vitro antibacterial evaluation, broth dilution micro-method MIC. The data set is classed as cell-based. The settings on record: Staphylococcus aureus, MRSA, read-out: MIC MRSA2.
Data set [6] deals with VRE 725 B, vancomycin-resistant E. faecalis. Briefly: In vitro anti-enterococcal MIC, broth dilution micro-method. The note with it: 24 h, read-out: MIC VRE 725 B. The data set is classed as cell-based, Enterococcus faecalis.
The next data set deals with E. faecalis ATCC 29213. Described as above. The data set is classed as cell-based. The note with it: Enterococcus faecalis, ATCC29213, 24 h, read-out: MIC E. faecalis ATCC 29213.
A short description of data set [7]: Lipophilicity log k by RP-HPLC. The data set is classed as physicochemical. The note with it: logarithm of capacity factor, experimentally determined by RP-HPLC.
Data set [8] concerns VRE 368, vancomycin-resistant E. faecalis. As to the kind of experiment: In vitro anti-enterococcal MIC, broth dilution micro-method. The data set is classed as cell-based, Enterococcus faecalis. The settings on record: 24 h, read-out: MIC VRE 368.
Data set [9] has as its system VRE 342B, vancomycin-resistant E. faecalis. The data set is described as above. The data set is classed as cell-based, Enterococcus faecalis. The note with it: 24 h, read-out: MIC VRE 342B.
The test system of data set [10] is MRSA3, methicillin-resistant S. aureus clinical isolate 63718. As to the kind of experiment: In vitro antibacterial evaluation, broth dilution micro-method MIC. The data set is classed as cell-based. The settings on record: Staphylococcus aureus, read-out: MIC MRSA3.
Data set [11] concerns human monocytic leukemia cell line THP-1. Briefly: In vitro cell viability analysis. The data set is classed as cell-based. The settings on record: read-out: IC50 THP-1.
Data set [12] has as its system S. aureus ATCC 29213. As to the kind of experiment: Dynamics of antibacterial effect. The data set is classed as cell-based, Staphylococcus aureus. The settings on record: time-kill curves, 1×, 2× (SB3–Cu also 4×) MIC, up to 24 h.
In data set [13] the test system is MRSA1, methicillin-resistant S. aureus clinical isolate SA 3202. As to the kind of experiment: In vitro antibacterial evaluation, broth dilution micro-method MIC. The data set is classed as cell-based. The note with it: Staphylococcus aureus, MRSA, read-out: MIC MRSA1.
The next data set concerns M. kansasii DSM 44162. As to the kind of experiment: In vitro antimycobacterial evaluation, broth dilution micro-method. The note with it: Mycobacterium kansasii, DSM44162, read-out: MIC M. kansasii DSM 44162. The data set is classed as cell-based.
For data set [14], the system named is S. aureus ATCC 29213. Briefly: MTT assay, inhibition of respiratory activity. The data set is classed as cell-based, Staphylococcus aureus. The settings on record: at 16 × MIC. (Tetrazolium dyes change colour on reduction, which living cells bring about.)
Setting [15] is: ATCC29213, 24 h, read-out: MIC SA.

≈ marks a conversion by molar mass, not a printed value. Read-outs that look alike come from different tables or passages of the source. Where only a bound is given, the exact number is not on record here.

With `O=C1c2ccccc2NC(c2cc([N+](=O)[O-])ccc2O)N1/N=C/c1cc([N+](=O)[O-])ccc1O` (stereo not shown) [SB3, 3-[(E)-(2-hydroxy-5-nitrobenzylidene)amino]-2-(2-hydroxy-5-nitrophenyl)-2,3-dihydroquinazolin-4(1H)-one], the IC50 – broadly, the midpoint of a concentration-inhibition curve – in data set [1] was 432 µM; in data set [11] (Homo sapiens, THP-1, 24 h), 12.7 ± 1.2 µM. Further, the “Apoptosis of MCF-7 cells” value in [2] is “induces apoptosis”. Also, the MIC (as a rule, the lowest concentration found to suppress growth) was 32 µg/mL in data set [3] (setting [15]); 71.2 µM in data set [3] (ATCC29213, read-out: MIC SA); 16 µg/mL in [5] (24 h); 35.6 µM in [5]; > 256 µg/mL in [6]; 256 µg/mL (≈ 570 µM) in the data set with E. faecalis ATCC 29213. The MIC in [8] was > 256 µg/mL; in data set [9], > 256 µg/mL; in data set [10] (24 h) it was 64 µg/mL; in data set [10] it was 141 µM; in data set [13] (24 h) it was 64 µg/mL; in data set [13] it was 141 µM. Further, the “Reduction of biofilm viability” value in data set [4] (at 0.5 × MIC) is on record as “no effect”. In addition, in data set [4] (at 1 × MIC), the “Eradication activity on mature biofilm” value was 81.7 ± 13.7%. Also, the “Concentration eradicating 80% of S. aureus biofilm” value in data set [4] (mature biofilm, 24 h treatment) amounted to 1 × MIC. The same compound displayed a log k in data set [7] of 0.6022. In the data set on S. aureus ATCC 29213 [12], the “Mode of antibacterial action (bactericidal vs bacteriostatic)” value was “only bacteriostatically”.

As for `NNC(=O)c1ccncc1` [INH, isoniazid], in the data set on M. kansasii DSM 44162, the MIC amounted to 29.1 µM (≈ 3.99 µg/mL).

As for `COc1cccc(/C=N/N2C(=O)c3ccccc3NC2c2cccc(OC)c2O)c1O` (stereo not shown) [SB8, 3-[(E)-(2-hydroxy-3-methoxybenzylidene)amino]-2-(2-hydroxy-3-methoxyphenyl)-2,3-dihydroquinazolin-4(1H)-one], the IC50 in [1] is > 1000 µM; in [11] (Homo sapiens, THP-1, 24 h), > 50 µM. The MIC (in data set [3] (setting [15]); in data set [5] (24 h); in data set [6]; with E. faecalis ATCC 29213; in [8]; in [9]) was > 256 µg/mL in each case. Also, the MIC in data set [10] (24 h) and in [13] (24 h) was > 256 µg/mL in each case. This compound also had a log k in data set [7] of 0.1689.

Take `N.N.[Cl][Pt][Cl]` [CPT, cisplatin, reference compound]: the IC50 in data set [11] (cell viability, CCK-8, 24 h, ± SD, n = 6) turned out to be 16.1 ± 1.3 µM.

As to `CC1(C)S[C@@H]2[C@H](NC(=O)[C@H](N)c3ccccc3)C(=O)N2[C@H]1C(=O)O` [AMP, ampicillin, reference compound], the MIC is 2 µg/mL in data set [3] (setting [15]); 5.7 µM in data set [3] (ATCC29213, read-out: MIC SA); > 16 µg/mL in data set [5] (24 h); > 45.8 µM in [5]; 4 µg/mL (≈ 11.4 µM) in data set [6]; 1 µg/mL (≈ 2.86 µM) in the data set with E. faecalis ATCC 29213. Further, the MIC in data set [8] was 4 µg/mL (≈ 11.4 µM); in [9], 4 µg/mL (≈ 11.4 µM); in data set [10] (24 h), 16 µg/mL; in data set [10], 45.8 µM; in data set [13] (24 h), > 16 µg/mL; in data set [13], > 45.8 µM. The “S. aureus Respiration Inhibition” value with S. aureus ATCC 29213 [14] is reported as 81.9%.
